Assay results published in patent US20250179059A1 (The Regents of the University of California, priority 2021, published 2025).

Key:
[1] = target: T1, human BRD4 bromodomain II (Homo sapiens, UniProt O60885); assay: Bromodomain binding assay (AlphaScreen), BRD4 BDII; conditions: AlphaScreen assay, Table C2; read-out: BRD4 BDII IC50
T1 construct: human BRD4 bromodomain II [based on Genbank NM_058243, residues 349-460]; host or cells: E. coli
Outline: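 Read-out is AlphaScreen signal (ex 680 nm, em 520-620 nm) from streptavidin donor beads on a biotinylated acetylated histone H4 (aa 1-21) peptide and nickel acceptor beads on the His6-tagged bromodomain. IC50 values come from curve fits of percentage peptide binding against compound concentration.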

[2] = system: human SKM-1 acute myeloid leukemia cells; assay: SKM-1 antiproliferation cell-based assay (ATPlite); conditions: Homo sapiens, SKM-1, 96 h, SKM-1 antiproliferation assay, 4 days, Table C2
Outline: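 Log-phase cells in RPMI 1640/15% FBS were seeded at 34722 cells/mL and exposed for 4 days to nine-concentration DMSO serial dilutions in triplicate. Viability was read as ATP luminescence (ATPlite 1step), and IC50 values came from variable-slope non-linear regression.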

Row | IC50 [1] [nM] | GI50 [2] [nM] | SMILES
1 | 0.01 to 1 | 0.3 to 30 | Cn1ccn(-c2ccc(-c3cc(F)cc(-c4ccnc(N5CCC[C@H](N)C5)c4)c3O)cc2Cl)c1=O [Example 411, (S)-1-(3′-(2-(3-aminopiperidin-1-yl)pyridin-4-yl)-3-chloro-5′-fluoro-2′-hydroxy-[1,1′-biphenyl]-4-yl)-3-methyl-1H-imidazol-2(3H)-one]
2 | 0.01 to 1 | 30 to 300 | [2H]C([2H])([2H])N1CCN(c2ccc(-c3cc(F)cc(-c4ccnc(N5CCNCC5)c4)c3O)cc2Cl)C1=O [Example 412, 1-(3-chloro-5′-fluoro-2′-hydroxy-3′-(2-(piperazin-1-yl)pyridin-4-yl)-[1,1′-biphenyl]-4-yl)-^3-deuteromethylimidazolidin-2-one]
3 | 0.01 to 1 | 30 to 300 | Cn1ccn(-c2ccc(-c3cc(F)cc(-c4ccnc(N5CCC(N)CC5)c4)c3O)cc2Cl)c1=O [Example 414, 1-(3′-(2-(4-aminopiperidin-1-yl)pyridin-4-yl)-3-chloro-5′-fluoro-2′-hydroxy-[1,1′-biphenyl]-4-yl)-3-methyl-1H-imidazol-2(3H)-one]
4 | 1 to 10 | 30 to 300 | CN1CCN(c2ccc(-c3cc(F)cc(-c4cnc(N5CCOCC5)c(N5CCNCC5)c4)c3O)cc2Cl)C1=O [Example 415, 1-(3-chloro-5′-fluoro-2′-hydroxy-3′-(6-morpholino-5-(piperazin-1-yl)pyridin-3-yl)-[1,1′-biphenyl]-4-yl)-3-methylimidazolidin-2-one]
5 | 10 to 100 | ≥ 3000 | CN1CCN(c2ccc(-c3cc(F)cc(-c4ncc(N5CCOCC5)cc4N4CCNCC4)c3O)cc2Cl)C1=O [Example 416, 1-(3-chloro-5′-fluoro-2′-hydroxy-3′-(5-morpholino-3-(piperazin-1-yl)pyridin-2-yl)-[1,1′-biphenyl]-4-yl)-3-methylimidazolidin-2-on]
6 | 1 to 10 | 300 to 3000 | O=C1CCN1c1ccc(-c2cc(F)cc(-c3ccnc(N4CCNCC4)c3)c2O)cc1Cl [Example 417, 1-(3-chloro-5′-fluoro-2′-hydroxy-3′-(2-(piperazin-1-yl)pyridin-4-yl)-[1,1′-biphenyl]-4-yl)azetidin-2-one]
7 | 10 to 100 | 300 to 3000 | CC(C)Oc1cc(-c2cc(F)cc(-c3ccnc(N4CCNCC4)c3)c2O)cc(Cl)c1N1CCN(C)C1=O [Example 418, 1-(3-chloro-5′-fluoro-2′-hydroxy-5-isopropoxy-3′-(2-(piperazin-1-yl)pyridin-4-yl)-[1,1′-biphenyl]-4-yl)-3-methylimidazolidin-2-one]
8 | 0.01 to 1 | 0.3 to 30 | Cc1cc(-c2ccnc(N3CCNCC3)c2)c(O)c(-c2ccc(-n3ccn(C)c3=O)c(Cl)c2)c1 [Example 420, 1-(3-chloro-2′-hydroxy-5′-methyl-3′-(2-(piperazin-1-yl)pyridin-4-yl)-[1,1′-biphenyl]-4-yl)-3-methyl-1H-imidazol-2(3H)-one]
9 | 0.01 to 1 | 30 to 300 | CN1CCN(c2ccc(-c3cc(F)cc(-c4cnc(OC5CCC(O)CC5)c(N5CCNCC5)c4)c3O)cc2Cl)C1=O (stereo not shown) [Example 421, 1-(3-chloro-5′-fluoro-2′-hydroxy-3′-(6-((4-hydroxycyclohexyl)oxy)-5-(piperazin-1-yl)pyridin-3-yl)-[1,1′-biphenyl]-4-yl)-3-methylimidazolidin-2-one]
10 | 0.01 to 1 | 0.3 to 30 | Cn1cc(-c2cc(F)cc(-c3ccc(-n4ccn(C)c4=O)c(Cl)c3)c2O)cc(N2CC[C@H](N)C2)c1=O [Example 422, (S)-3-(3-aminopyrrolidin-1-yl)-5-(3′-chloro-5-fluoro-2-hydroxy-4′-(3-methyl-2-oxo-2,3-dihydro-1H-imidazol-1-yl)-[1,1′-biphenyl]-3-yl)-1-methylpyridin-2(1H)-one]
11 | 0.01 to 1 | 0.3 to 30 | Cn1ccn(-c2ccc(-c3cc(F)cc(-c4ccnc(N5CC[C@H](N)C5)c4)c3O)cc2Cl)c1=O [Example 423, (S)-1-(3′-(2-(3-aminopyrrolidin-1-yl)pyridin-4-yl)-3-chloro-5′-fluoro-2′-hydroxy-[1,1′-biphenyl]-4-yl)-3-methyl-1H-imidazol-2(3H)-one]
12 | 0.01 to 1 | 30 to 300 | CN1CCN(c2ccc(-c3cc(F)cc(-c4cc(N5CCNCC5)c5[nH]ncc5c4)c3O)cc2Cl)C1=O [Example 424, 1-(3-chloro-5′-fluoro-2′-hydroxy-3′-(7-(piperazin-1-yl)-1H-indazol-5-yl)-[1,1′-biphenyl]-4-yl)-3-methylimidazolidin-2-one]
13 | 0.01 to 1 | 30 to 300 | Cn1cc(-c2cc(F)cc(-c3ccc(-n4ccn(C)c4=O)c(Cl)c3)c2O)cc(N2CCC[C@H](N)C2)c1=O [Example 425, (S)-3-(3-aminopiperidin-1-yl)-5-(3′-chloro-5-fluoro-2-hydroxy-4′-(3-methyl-2-oxo-2,3-dihydro-1H-imidazol-1-yl)-[1,1′-biphenyl]-3-yl)-1-methylpyridin-2(1H)-one]
14 | > 100 | ≥ 3000 | CN1CCN(c2c(Cl)cc(-c3cc(F)cc(-c4ccnc(N5CCNCC5)c4)c3O)cc2C#N)C1=O [Example 426, 5-chloro-5′-fluoro-2′-hydroxy-4-(3-methyl-2-oxoimidazolidin-1-yl)-3′-(2-(piperazin-1-yl)pyridin-4-yl)-[1,1′-biphenyl]-3-carbonitrile]
15 | 1 to 10 | 300 to 3000 | Cn1cc(-c2cc(F)cc(-c3ccc(-n4ccn(C)c4=O)c(Cl)c3)c2O)cc(N2CCC(N)CC2)c1=O [Example 427, 3-(4-aminopiperidin-1-yl)-5-(3′-chloro-5-fluoro-2-hydroxy-4′-(3-methyl-2-oxo-2,3-dihydro-1H-imidazol-1-yl)-[1,1′-biphenyl]-3-yl)-1-methylpyridin-2(1H)-one]
16 | 1 to 10 | 30 to 300 | CN1CCN(c2ccc(-c3cc(F)cc(-c4cnc(CCO)c(N5CCNCC5)c4)c3O)cc2Cl)C1=O [Example 428, 1-(3-chloro-5′-fluoro-2′-hydroxy-3′-(6-(2-hydroxyethyl)-5-(piperazin-1-yl)pyridin-3-yl)-[1,1′-biphenyl]-4-yl)-3-methylimidazolidin-2-one]
17 | 0.01 to 1 | 0.3 to 30 | CN[C@H]1CCN(c2cc(-c3cc(F)cc(-c4ccc(-n5ccn(C)c5=O)c(Cl)c4)c3O)ccn2)C1 [Example 429]
18 | 0.01 to 1 | 0.3 to 30 | CN1CCN(c2cc(-c3cc(F)cc(-c4ccc(-n5ccn(C)c5=O)c(Cl)c4)c3O)ccn2)CC1 [Example 430, 1-(3-chloro-5′-fluoro-2′-hydroxy-3′-(2-(4-methylpiperazin-1-yl)pyridin-4-yl)-[1,1′-biphenyl]-4-yl)-3-methyl-1H-imidazol-2(3H)-one]
19 | > 100 | ≥ 3000 | O=c1[nH]c2ccc(-c3cc(F)cc(-c4ccnc(N5CCNCC5)c4)c3O)cc2[nH]1 [Example 431, 5-(5-fluoro-2-hydroxy-3-(2-(piperazin-1-yl)pyridin-4-yl)phenyl)-1H-benzo[d]imidazol-2(3H)-one]
20 | 0.01 to 1 | 0.3 to 30 | C[C@@H]1CN(c2cc(-c3cc(F)cc(-c4ccc(-n5ccn(C)c5=O)c(Cl)c4)c3O)cn(C)c2=O)CCN1 [Example 432, (R)-5-(3′-chloro-5-fluoro-2-hydroxy-4′-(3-methyl-2-oxo-2,3-dihydro-1H-imidazol-1-yl)-[1,1′-biphenyl]-3-yl)-1-methyl-3-(3-methylpiperazin-1-yl)pyridin-2(1H)-one]
21 | 1 to 10 | 0.3 to 30 | CC(=O)Nc1cc(-c2cc(F)cc(-c3ccc(N4CCN(C)C4=O)c(Cl)c3)c2O)cc(N2CCNCC2)n1 [Example 433, N-(4-(3′-chloro-5-fluoro-2-hydroxy-4′-(3-methyl-2-oxoimidazolidin-1-yl)-[1,1′-biphenyl]-3-yl)-6-(piperazin-1-yl)pyridin-2-yl)acetamide]
22 | 10 to 100 | 300 to 3000 | CC(C)Oc1cc(-c2cc(F)cc(-c3ccnc(N4CCNCC4)c3)c2O)cc(Cl)c1-n1ccn(C)c1=O [Example 434, 1-(3-chloro-5′-fluoro-2′-hydroxy-5-isopropoxy-3′-(2-(piperazin-1-yl)pyridin-4-yl)-[1,1′-biphenyl]-4-yl)-3-methyl-1H-imidazol-2(3H)-one]
23 | 1 to 10 | 30 to 300 | Cn1ccn(-c2c(F)cc(-c3cc(F)cc(-c4ccnc(N5CCNCC5)c4)c3O)cc2Cl)c1=O [Example 436, 1-(3-chloro-5,5′-difluoro-2′-hydroxy-3′-(2-(piperazin-1-yl)pyridin-4-yl)-[1,1′-biphenyl]-4-yl)-^3-methyl-1H-imidazol-2(3H)-one]
24 | 1 to 10 | 0.3 to 30 | Cn1cc(-c2cc(F)cc(-c3ccc(-n4ccn(C)c4=O)c(Cl)c3)c2O)cc(N2CCNCC2)c1=O [Example 437, 5-(3′-chloro-5-fluoro-2-hydroxy-4′-(3-methyl-2-oxo-2,3-dihydro-1H-imidazol-1-yl)-[1,1′-biphenyl]-3-yl)-1-methyl-3-(piperazin-1-yl)pyridin-2(1H)-one]
25 | 1 to 10 | 30 to 300 | CN[C@H]1CCN(c2cc(-c3cc(F)cc(-c4ccc(N5CCN(C)C5=O)c(Cl)c4)c3O)ccn2)C1 [Example 438, (S)-1-(3-chloro-5′-fluoro-2′-hydroxy-3′-(2-(3-(methylamino)pyrrolidin-1-yl)pyridin-4-yl)-[1,1′-biphenyl]-4-yl)-3-methylimidazolidin-2-one]
26 | 0.01 to 1 | 30 to 300 | Cn1ccn(-c2ccc(-c3cc(F)cc(-c4cc(NS(C)(=O)=O)nc(N5CCNCC5)c4)c3O)cc2Cl)c1=O [Example 439, N-(4-(3′-chloro-5-fluoro-2-hydroxy-4′-(3-methyl-2-oxo-2,3-dihydro-1H-imidazol-1-yl)-[1,1′-biphenyl]-3-yl)-6-(piperazin-1-yl)pyridin-2-yl)methanesulfonamide]
